Experiments:
Type in all cases: physicochemical
[1] = Free water content by dynamic vapour sorption (adsorption isotherm, VTI-SGA 100); settings: equilibrium relative humidity of 30%, 25° C.
Description: The free water content of a sample can be determined by dynamic vapour sorption. The underlying principle is that the weight of the sample is monitored while it is contacted with air having a preconditioned relative humidity. As a result of water take-up or water release the sample weight will change until the equilibrium situation has been established. The sample weight in this equilibrium situation is the sample weight corresponding to the equilibrium relative humidity, the latter being the relative humidity of the preconditioned air with which the sample is contacted. By repeating this procedure for different values of the equilibrium relative humidity, the sample weight can be determined as a function of the equilibrium relative humidity. […]
As used herein, the free water content measured at an equilibrium relative humidity of 30% and at a temperature of 25° C. is in particular defined as ((w30-w10)/w10)*100%, wherein […]
The free water content, including the values for w30 and w10 are preferably determined using dynamic vapour sorption, for instance using a VTI-SGA 100 vapour sorption analyser. […]
Adsorption isotherms were determined using dynamic vapour sorption, using a VTI-SGA 100 vapour sorption analyser. […]

[2] = Particle size distribution by laser diffraction (Malvern particle sizer 2600 C)
Description: The d10 and d50 are known ways for indicating a particle size distribution, d50 referring to the value for the particle size such that 50 vol. % of the crystals has a particle size smaller than said value. The d50 is also referred to as average volume-based grain size. Likewise, d10 refers to the value for the particle size such that 10 vol. % of the crystals has a particle size smaller than said value. A preferred way for determining d10 and d50 is laser diffraction, preferably using Malvern equipment. A suitable apparatus for […] determining d10 and d50 is a Malvern particle sizer 2600 C obtainable from Malvern Instruments Ltd., Malvern UK, using an objective of f=300 mm and a beam length of is 14.30 mm. A polydisperse analysis model may advantageously be used.
The particle size distribution (including d10 and d50) was determined using a Malvern particle sizer 2600 C with objective f=300 mm, malvern sample measurement unit PS1 and a Malvern dry powder feeder PS 64. The beam length was 14.30 mm. A polydisperse analysis model was used.

[3] = Bulk density (USP 24, method I); settings: for Bulk dens.: crystalline powder as obtained, trihydrate
Description: The crystalline powder according according to this aspect of the invention has improved flow properties, without having to be subjected to processes such as granulation, compactation, agglomeration or aggregation, has good colour properties, good stability and a high dissolution rate. If it would still be desired to subject the crystalline powder to processes such as granulation, compactation, agglomeration or aggregation, and the like, applying these processes is facilitated due to the improved flow properties of the crystalline powder according to this aspect of the invention. Moreover, an increased quantity of crystalline powder can be fed into a capsule of a given size. The bulk density is preferably determined according to USP 24, method I, (page 1913). Preferably, of the crystalline powder has a bulk density higher than 0.46 g/ml, preferably higher than 0.5 g/ml, more preferably higher than 0.55 g/ml. This further improves the flow properties. Moreover, an increased bulk density is advantageous as crystalline powder may be fed into a certain volume, for instance a capsule. There is no specific upper limit for the bulk density. The bulk density may be less than 0.8 g/ml, for instance less than 0.7 g/ml.

[4] = Tapped density (USP 24, method II); settings: for Tap. dens.: crystalline powder as obtained, trihydrate
Description: In a preferred embodiment, the crystalline powder according to the invention has a tapped density higher than 0.6 g/ml, preferably higher than 0.7, more preferably higher than 0.8 g/ml. An increased tapped density improves the flow properties. Moreover, an increased tapped density is advantageous as more products may be fed into a certain volume, for instance a capsule. There is no specific upper limit for the tapped density. The tapped density may be less than 1.2 g/ml, for instance less than 1.1 g/ml, for instance less than 1.0 g/ml. The tapped density is preferably determined according to USP 24, method II, (page 1914).

[5] = crystalline powder as obtained, trihydrate
[6] = overheads fraction after air jet sieving, 75 μm screen, 10 minutes

| Free water content at ERH = 30% [1] [wt. %] | d10 ([2]; crystalline powder as obtained) [μm] | d50 ([2]; crystalline powder as obtained) [μm] | d10 [2, 5] [μm] | d50 [2, 5] [μm] | Bulk dens. [3] [g/mL] | Tap. dens. [4] [g/mL] | d10 [2, 6] [μm] | d50 [2, 6] [μm] | bulk density [3, 6] [g/mL] | tapped density [4, 6] [g/mL] | Compound |
| --- | --- | --- | --- | --- | --- | --- | --- | --- | --- | --- | --- |
| 0.11 | 2.7 | 8.3 |  |  |  |  |  |  |  |  | CC1(C)S[C@@H]2[C@H](NC(=O)[C@H](N)c3ccc(O)cc3)C(=O)N2[C@H]1C(=O)O [Comp. A, amoxicillin, reference compound] |
| 0.05 |  |  | 11.4 | 43.1 | 0.51 | 0.73 |  |  |  |  | CC1(C)S[C@@H]2[C@H](NC(=O)[C@H](N)c3ccc(O)cc3)C(=O)N2[C@H]1C(=O)O.O.O.O [Ex. I, amoxicillin trihydrate] |
|  |  |  | 17.4 | 66.3 | 0.25 | 0.47 |  |  |  |  | CC1(C)S[C@@H]2[C@H](NC(=O)[C@H](N)c3ccc(O)cc3)C(=O)N2[C@H]1C(=O)O.O.O.O [Example V, amoxicillin trihydrate] |
|  |  |  | 19 | 61 | 0.58 | 0.79 | 36 | 86 | 0.59 | 0.74 | CC1(C)S[C@@H]2[C@H](NC(=O)[C@H](N)c3ccc(O)cc3)C(=O)N2[C@H]1C(=O)O.O.O.O [Example VI, amoxicillin trihydrate] |

Source: patent US20060172987A1 (DSM IP Assets B.V., priority 2003, published 2006)
